# Reference: PubChem BioAssay AID2060894 (Molecular Pharmacology Branch, DTP, NCI, 2025)
# Tested on: K12877-001-R-J1-PDC complex spheroid viability
# Assay: Anticancer human tumor K12877-001-R-J1-PDC patient-derived lung adenocarcinoma cell line growth inhibition [RAS]
# Details: for viability, T/C: stronger effect = lower value
# How it was run: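 Tumour cells grown as complex spheroids with HUVEC endothelial cells and mesenchymal stem cells, treated with RAS pathway inhibitor combinations. Each agent spans half-log steps from near clinical Cmax, or 10 microM where Cmax is unknown.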
# [1] = curve of first compound, second compound 0.000949 µM
# [2] = curve of first compound, second compound 0.003 µM
# [3] = curve of first compound, second compound 0.00949 µM
# [4] = curve of first compound, second compound 0.03 µM
# [5] = curve of first compound, second compound 0.0949 µM
# [6] = curve of first compound, second compound 0.3 µM
# 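Also: spheroids exposed to agents for one week before readout.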
# 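For viability, T/C in this document: tumour cells co-cultured with HUVEC and mesenchymal stem cells in spheroids.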
compound,measurement,setting,value
CCc1c2c(nc3ccc(O)cc13)-c1cc3c(c(=O)n1C2)COC(=O)[C@]3(O)CC + CCn1c(-c2cc(N3CCN(C)CC3)cnc2C(C)OC)c2c3cc(ccc31)-c1csc(n1)CC(NC(=O)C1CC1C)C(=O)N1CCCC(N1)C(=O)OCC(C)(C)C2,IC50,[1],4.82 nM
same,IC50,[2],4.39 nM
same,IC50,[3],3.87 nM
same,IC50,[4],4.32 nM
same,IC50,[5],3.81 nM
same,IC50,[6],2.73 nM
same,"viability, T/C","second compound 0.000949 µM, first compound 0.000949 µM",78.3%
same,"viability, T/C","second compound 0.000949 µM, first compound 0.003 µM",72.4%
same,"viability, T/C","second compound 0.000949 µM, first compound 0.00949 µM",18.2%
same,"viability, T/C","second compound 0.000949 µM, first compound 0.03 µM",7.02%
same,"viability, T/C","second compound 0.000949 µM, first compound 0.0949 µM",3.48%
same,"viability, T/C","second compound 0.000949 µM, first compound 0.3 µM",2.43%
same,"viability, T/C","second compound 0.003 µM, first compound 0.000949 µM",67.2%
same,"viability, T/C","second compound 0.003 µM, first compound 0.003 µM",68.8%
same,"viability, T/C","second compound 0.003 µM, first compound 0.00949 µM",13.6%
same,"viability, T/C","second compound 0.003 µM, first compound 0.03 µM",6.6%
same,"viability, T/C","second compound 0.003 µM, first compound 0.0949 µM",4.13%
same,"viability, T/C","second compound 0.003 µM, first compound 0.3 µM",2.12%
same,"viability, T/C","second compound 0.00949 µM, first compound 0.000949 µM",71.6%
same,"viability, T/C","second compound 0.00949 µM, first compound 0.003 µM",59.8%
same,"viability, T/C","second compound 0.00949 µM, first compound 0.00949 µM",15.8%
same,"viability, T/C","second compound 0.00949 µM, first compound 0.03 µM",6.3%
same,"viability, T/C","second compound 0.00949 µM, first compound 0.0949 µM",3.36%
same,"viability, T/C","second compound 0.00949 µM, first compound 0.3 µM",1.64%
same,"viability, T/C","second compound 0.03 µM, first compound 0.000949 µM",84.9%
same,"viability, T/C","second compound 0.03 µM, first compound 0.003 µM",67.8%
same,"viability, T/C","second compound 0.03 µM, first compound 0.00949 µM",11.5%
same,"viability, T/C","second compound 0.03 µM, first compound 0.03 µM",6.66%
same,"viability, T/C","second compound 0.03 µM, first compound 0.0949 µM",2.86%
same,"viability, T/C","second compound 0.03 µM, first compound 0.3 µM",1.43%
same,"viability, T/C","second compound 0.0949 µM, first compound 0.000949 µM",94.8%
same,"viability, T/C","second compound 0.0949 µM, first compound 0.003 µM",59.5%
same,"viability, T/C","second compound 0.0949 µM, first compound 0.00949 µM",13.8%
same,"viability, T/C","second compound 0.0949 µM, first compound 0.03 µM",5.27%
same,"viability, T/C","second compound 0.0949 µM, first compound 0.0949 µM",3.05%
same,"viability, T/C","second compound 0.0949 µM, first compound 0.3 µM",1.38%
same,"viability, T/C","second compound 0.3 µM, first compound 0.000949 µM",85.1%
same,"viability, T/C","second compound 0.3 µM, first compound 0.003 µM",46.9%
same,"viability, T/C","second compound 0.3 µM, first compound 0.00949 µM",9.52%
same,"viability, T/C","second compound 0.3 µM, first compound 0.03 µM",4.79%
same,"viability, T/C","second compound 0.3 µM, first compound 0.0949 µM",3.58%
same,"viability, T/C","second compound 0.3 µM, first compound 0.3 µM",1.11%
CC(=O)OC12COC1CC(O)C1(C)C(=O)C(O)C3=C(C)C(OC(=O)C(O)C(NC(=O)OC(C)(C)C)c4ccccc4)CC(O)(C(OC(=O)c4ccccc4)C21)C3(C)C (stereo unspecified) + CCn1c(-c2cc(N3CCN(C)CC3)cnc2C(C)OC)c2c3cc(ccc31)-c1csc(n1)CC(NC(=O)C1CC1C)C(=O)N1CCCC(N1)C(=O)OCC(C)(C)C2,IC50,[1],< 31.6 nM
same,IC50,[2],< 31.6 nM
same,IC50,[3],< 31.6 nM
same,IC50,[4],< 31.6 nM
same,IC50,[5],< 31.6 nM
same,IC50,[6],< 31.6 nM
same,"viability, T/C","second compound 0.000949 µM, first compound 0.0316 µM",7.37%
same,"viability, T/C","second compound 0.000949 µM, first compound 0.1 µM",5.79%
same,"viability, T/C","second compound 0.000949 µM, first compound 0.316 µM",4.69%
same,"viability, T/C","second compound 0.000949 µM, first compound 1 µM",5.58%
same,"viability, T/C","second compound 0.000949 µM, first compound 3.16 µM",7.53%
same,"viability, T/C","second compound 0.000949 µM, first compound 10 µM",12.1%
same,"viability, T/C","second compound 0.003 µM, first compound 0.0316 µM",5.77%
same,"viability, T/C","second compound 0.003 µM, first compound 0.1 µM",4.36%
same,"viability, T/C","second compound 0.003 µM, first compound 0.316 µM",3.51%
same,"viability, T/C","second compound 0.003 µM, first compound 1 µM",4.48%
same,"viability, T/C","second compound 0.003 µM, first compound 3.16 µM",5.26%
same,"viability, T/C","second compound 0.003 µM, first compound 10 µM",14%
same,"viability, T/C","second compound 0.00949 µM, first compound 0.0316 µM",5.17%
same,"viability, T/C","second compound 0.00949 µM, first compound 0.1 µM",4.24%
same,"viability, T/C","second compound 0.00949 µM, first compound 0.316 µM",3.37%
same,"viability, T/C","second compound 0.00949 µM, first compound 1 µM",3.68%
same,"viability, T/C","second compound 0.00949 µM, first compound 3.16 µM",4.57%
same,"viability, T/C","second compound 0.00949 µM, first compound 10 µM",12.9%
same,"viability, T/C","second compound 0.03 µM, first compound 0.0316 µM",4.63%
same,"viability, T/C","second compound 0.03 µM, first compound 0.1 µM",2.99%
same,"viability, T/C","second compound 0.03 µM, first compound 0.316 µM",3.02%
same,"viability, T/C","second compound 0.03 µM, first compound 1 µM",3.05%
same,"viability, T/C","second compound 0.03 µM, first compound 3.16 µM",4.55%
same,"viability, T/C","second compound 0.03 µM, first compound 10 µM",10.7%
same,"viability, T/C","second compound 0.0949 µM, first compound 0.0316 µM",4.19%
same,"viability, T/C","second compound 0.0949 µM, first compound 0.1 µM",2.73%
same,"viability, T/C","second compound 0.0949 µM, first compound 0.316 µM",2.45%
same,"viability, T/C","second compound 0.0949 µM, first compound 1 µM",2.46%
same,"viability, T/C","second compound 0.0949 µM, first compound 3.16 µM",3.56%
same,"viability, T/C","second compound 0.0949 µM, first compound 10 µM",9.41%
same,"viability, T/C","second compound 0.3 µM, first compound 0.0316 µM",3.57%
same,"viability, T/C","second compound 0.3 µM, first compound 0.1 µM",2.99%
same,"viability, T/C","second compound 0.3 µM, first compound 0.316 µM",2.53%
same,"viability, T/C","second compound 0.3 µM, first compound 1 µM",2.8%
same,"viability, T/C","second compound 0.3 µM, first compound 3.16 µM",4.22%
same,"viability, T/C","second compound 0.3 µM, first compound 10 µM",9.04%
C[C@@H](NC(=O)c1ncnc(N)c1Cl)c1ncc(C(=O)Nc2cc(C(F)(F)F)c(Cl)cn2)s1,"viability, T/C",compound 0.0316 µM,110% [middle of 4 runs]
same,"viability, T/C",compound 0.1 µM,99.7% [middle of 4 runs]
same,"viability, T/C",compound 0.316 µM,95% [middle of 4 runs]
same,"viability, T/C",compound 1 µM,103% [middle of 4 runs]
same,"viability, T/C",compound 3.16 µM,100% [middle of 4 runs]
same,"viability, T/C",compound 10 µM,95.4% [middle of 4 runs]
same,IC50,curve of compound,> 10000 nM
